Measurements as given in patent US20250228855A1, “PYRAZINAMIDE COMPOUNDS” (The General Hospital Corporation, priority 2022, published 2025).
Counter-ions that a name gives are not always drawn. Like-named read-outs stand apart in the source and are kept apart here.

What was measured:
PfcProRS = PfcProRS (Plasmodium falciparum, UniProt Q8I5R7); assay: TR-FRET ligand displacement assay with tracer MAT379, PfcProRS; type: binding
HsProRS = molecular target: T1, HsProRS (Homo sapiens, UniProt P07814); assay: TR-FRET ligand displacement assay with tracer MAT379, HsProRS; type: binding
T1 sequence (P07814 1007-1512 limits assumed): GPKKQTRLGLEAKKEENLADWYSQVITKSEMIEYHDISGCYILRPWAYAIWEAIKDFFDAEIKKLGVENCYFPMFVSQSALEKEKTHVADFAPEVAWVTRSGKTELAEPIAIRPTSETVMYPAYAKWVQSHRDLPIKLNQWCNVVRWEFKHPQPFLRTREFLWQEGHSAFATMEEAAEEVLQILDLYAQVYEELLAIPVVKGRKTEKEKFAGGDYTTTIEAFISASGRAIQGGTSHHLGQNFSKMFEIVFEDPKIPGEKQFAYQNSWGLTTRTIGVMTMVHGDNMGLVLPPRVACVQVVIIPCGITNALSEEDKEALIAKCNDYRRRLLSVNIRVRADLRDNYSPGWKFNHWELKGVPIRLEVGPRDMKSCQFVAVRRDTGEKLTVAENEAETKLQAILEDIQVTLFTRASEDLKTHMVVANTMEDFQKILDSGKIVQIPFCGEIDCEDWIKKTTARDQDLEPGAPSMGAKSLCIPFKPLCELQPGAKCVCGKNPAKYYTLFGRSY

P. falciparum Dd2-2D4 = assay: P. falciparum asexual blood stage growth assay, wild-type Dd2-2D4; settings: Plasmodium falciparum
Experimental: (§1) Asexual blood stage (ABS) P. falciparum parasites were treated with test compounds at varying concentrations for 72 h, followed by quantification of parasite growth by SYBR Green staining.
(§2) P. falciparum Asexual Blood Stage Growth Assay: This assay was performed as previously described.

[1] = test system: halofuginone-induced (HFG-induced) P. falciparum; assay: P. falciparum asexual blood stage growth assay, halofuginone-induced parasites; settings: Plasmodium falciparum
Experimental: as §1, §2

[2] = no proline, no ATP, read-out: PfcProRS (KD [nM]) −
[3] = no proline, no ATP, read-out: HsProRS (KD [nM]) −
[4] = read-out: HsProRS (KD [nM]) +proline, 100 μM Pro
[5] = DD2, 72 h, read-out: Dd2 (EC50 [nM]) wt
[6] = DD2, 72 h, read-out: Dd2 (EC50 [nM]) Halofuginone-induced
[7] = PfcProRS (KD [nM]) +proline, 100 μM Pro
[8] = absence of proline, read-out: KD for PfcProRS
[9] = DD2, read-out: EC50 against Dd2-2D4 wildtype parasites
[10] = read-out: EC50 in halofuginone-induced parasites

Sequence of PfcProRS (Q8I5R7 whole entry): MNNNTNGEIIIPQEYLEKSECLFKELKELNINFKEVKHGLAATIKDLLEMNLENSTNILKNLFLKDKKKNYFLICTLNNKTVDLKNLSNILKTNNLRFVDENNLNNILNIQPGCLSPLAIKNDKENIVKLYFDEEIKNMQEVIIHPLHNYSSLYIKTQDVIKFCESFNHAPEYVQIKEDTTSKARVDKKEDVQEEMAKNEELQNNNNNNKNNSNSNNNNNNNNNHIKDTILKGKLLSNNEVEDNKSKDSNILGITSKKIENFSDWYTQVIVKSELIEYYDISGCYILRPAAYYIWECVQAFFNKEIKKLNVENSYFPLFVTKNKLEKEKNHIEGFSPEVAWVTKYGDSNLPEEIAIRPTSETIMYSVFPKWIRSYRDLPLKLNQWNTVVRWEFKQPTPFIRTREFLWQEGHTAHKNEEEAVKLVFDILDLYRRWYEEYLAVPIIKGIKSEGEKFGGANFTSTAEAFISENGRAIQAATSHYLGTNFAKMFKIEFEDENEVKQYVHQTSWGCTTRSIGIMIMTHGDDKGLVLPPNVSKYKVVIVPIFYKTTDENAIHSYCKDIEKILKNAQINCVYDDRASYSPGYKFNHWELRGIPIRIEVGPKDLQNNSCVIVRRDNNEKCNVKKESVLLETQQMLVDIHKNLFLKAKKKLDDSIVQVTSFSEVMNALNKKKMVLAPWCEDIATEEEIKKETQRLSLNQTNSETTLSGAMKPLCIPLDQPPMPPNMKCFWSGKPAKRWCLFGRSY

| Structure (SMILES) | Kd (PfcProRS; [2]) [nM] | Kd (PfcProRS; read-out: PfcProRS (KD [nM]) +proline, 100 μM Pro) [nM] | Kd (HsProRS; [3]) [nM] | Kd (HsProRS; [4]) [nM] | EC50 (P. falciparum Dd2-2D4; [5]) [nM] | EC50 [1, 6] [nM] | Kd (PfcProRS; [7]) [nM] | Kd (PfcProRS; [8]) [nM] | EC50 (P. falciparum Dd2-2D4; [9]) [nM] | EC50 [1, 10] [nM] | Kd (HsProRS) [nM] | Kd (HsProRS; read-out: HsProRS (KD [nM]) −) [nM] | Kd (HsProRS; absence of proline, read-out: KD for HsProRS) [nM] | IC50 (P. falciparum Dd2-2D4; DD2, read-out: IC50 for Dd2-2D4) [nM] |
| --- | --- | --- | --- | --- | --- | --- | --- | --- | --- | --- | --- | --- | --- | --- |
| O=C(CCCCCNC(=O)Nc1ccccc1)NCC1CCN(C(=O)Nc2nccnc2C(=O)NC2Cc3ccccc3C2)CC1 [MAT516] | 94.1 | 60.8 | 402 | 159 | 636 | 4760 | – | – | – | – | – | – | – | – |
| C[C@@H]1CCC[C@H](C)N1C(=O)Nc1nccnc1C(=O)NC1Cc2ccccc2C1 [Compound 19, N-(2,3-dihydro-1H-inden-2-yl)-3-(cis-2,6-dimethylpiperidine-1-carboxamido)pyrazine-2-carboxamide] | > 2860 | – | > 8720 | 1320 | > 10000 | 8590 | 1180 | – | – | – | – | – | – | – |
| O=C(NS(=O)(=O)N1CCN(C(=O)Nc2nccnc2C(=O)NC2Cc3ccccc3C2)CC1)O[C@H]1CCCNC1 [MAT445, (S)-piperidin-3-yl ((4-((3-((2,3-dihydro-1H-inden-2-yl)carbamoyl)pyrazin-2-yl)carbamoyl)piperazin-1-yl)sulfonyl)carbamate] | – | – | – | – | 1160 | 7620 | – | 1110 | 1160 | > 10000 | – | – | – | – |
| O=C(NS(=O)(=O)N1CCN(C(=O)Nc2nccnc2C(=O)NC2Cc3ccccc3C2)CC1)O[C@H]1CCCN[C@@H]1CC(O)Cn1cnc2cc(Br)c(Cl)cc2c1=O (stereo partly drawn) [MAT583, (2R,3S)-2-(3-(7-bromo-6-chloro-4-oxoquinazolin-3(4H)-yl)-2-hydroxypropyl)piperidin-3-yl ((4-((3-((2,3-dihydro-1H-inden-2-yl)carbamoyl)pyrazin-2-yl)carbamoyl)piperazin-1-yl)sulfonyl)carbamate 2,2,2-trifluoroacetate] | 187 | – | 687 | – | 2270 | 7750 | 19 | – | – | – | 150 | – | – | – |
| O=C(NC1Cc2ccccc2C1)c1nccnc1NC(=O)N1CCC(CCO)CC1 [Compound 12, N-(2,3-dihydro-1H-inden-2-yl)-3-(4-(2-hydroxyethyl)piperidine-1-carboxamido)pyrazine-2-carboxamide] | 515 | – | 687 | 150 | 153 | 6350 | 339 | – | – | – | – | – | – | – |
| CC(C)(C)OC(=O)NCC1CCN(C(=O)Nc2nccnc2C(=O)NC2Cc3ccccc3C2)CC1 [Compound 9, tert-butyl ((1-((3-((2,3-dihydro-1H-inden-2-yl)carbamoyl)pyrazin-2-yl)carbamoyl)piperidin-4-yl)methyl)carbamate] | 382 | – | 2510 | – | 6570 | 7530 | 353 | – | – | – | > 5090 | – | – | – |
| NCCCCCC(=O)NC1CCN(C(=O)Nc2nccnc2C(=O)NC2Cc3ccccc3C2)CC1 [Compound 42, 3-(4-(6-aminohexanamido)piperidine-1-carboxamido)-N-(2,3-dihydro-1H-inden-2-yl)pyrazine-2-carboxamide dihydrochloride] | 433 | – | – | 780 | 3120 | 9080 | 295 | – | – | – | – | 674 | – | – |
| CC1(C(=O)Nc2nccnc2C(=O)NC2Cc3ccccc3C2)CCCCC1 [Compound 4, N-(2,3-dihydro-1H-inden-2-yl)-3-(1-methylcyclohexane-1-carboxamido)pyrazine-2-carboxamide] | 275 | – | 221 | 2.55 | 180 | 540 | 3.42 | – | 180 | 540 | – | – | – | – |
| Nc1ncnc2c1ncn2[C@@H]1O[C@H](CNS(=O)(=O)NC(=O)OCCn2cnc3ccccc3c2=O)[C@@H](O)[C@H]1O [MAT511, 2-(4-oxoquinazolin-3(4H)-yl)ethyl (N-(((2R,3S,4R,5R)-5-(6-amino-9H-purin-9-yl)-3,4-dihydroxytetrahydrofuran-2-yl)methyl)sulfamoyl)carbamate] | > 2860 | – | > 8720 | – | 76.5 | 52.2 | 1810 | > 10000 | – | – | > 5090 | – | > 10000 | 73.9 |
